According to patent US20150011484A1, “PRODRUGS OF D-GAMMA-GLUTAMYL-D-TRYPTOPHAN AND D-GAMMA-GLUTAMYL-L-TRYPTOPHAN” (APOTEX TECHNOLOGIES, INC., priority 2011, published 2015):

Key:
[1] = Distribution coefficient determination, D7.4 (1-octanol / MOPS buffer pH 7.4); format: physicochemical
Procedure: MOPS buffer (50 mM, pH=7.4) and 1-octanol were used as the aqueous phase and the organic phase, respectively. The MOPS buffer and 1-octanol were mixed, and pre-saturated with each other prior to use.
In a typical experiment, an aqueous solution of Apo848 hydrochloride salt (H-D-Glu(D-Trp-O-isoamyl)-O-isoamy HCl) was prepared by weighing out 2 mg of the compound into a 5-mL volumetric flask, followed by addition of MOPS buffer (50 mM, pH=7.4) to volume. The resulting mixture was sonicated and vortexed to ensure complete dissolution. The resulting solution was analyzed by HPLC (Column: XTerra MS C18, […], 4.6×250 mm; Mobile phase: A=4 mM Tris, 2 mM EDTA, pH 7.4 aqueous, B=acetonitrile; Gradient method: time in minutes—B in %:0-5, 15-55, 25-55, 25.05-5, 30-5; Flow rate: 1 mL/min; Injection volume=2 μL; detector wavelength: 282 nm) to obtain the peak height (Haqu^l).
One mL of this aqueous solution was pipetted out into another 10-mL test-tube and mixed with 1 mL of 1-octanol. The mixture was vortexed for 1 hour, then centrifuged at 4000 rpm for 15 minutes. The two phases were separated. Both the aqueous phase and the organic phase were analyzed by HPLC to obtain the peak heights, Haqu^F and Horg^F. The distribution coefficient, D7.4, was calculated using one or both the following equations: D7.4=(Haqu^l−Haqu^F)/Haqu^F, or D7.4=Horg^F/Haqu^F.

[2] = Pharmacokinetic studies in rats (oral bioavailability); format: in vivo, male Sprague-Dawley rats
Procedure: Groups of five male Sprague-Dawley rats weighing 250 to 300 g were utilized per dosing group. One day prior to dosing, venous and arterial catheters (made of 20 cm long polyurethane coiled tubing, and filled with 100 units/mL heparinized saline) were implanted into the jugular vein and carotid artery of each rat. Rats were fasted overnight prior to oral dosing and fed approximately 2 hours post-dosing. All dosing and blood sampling was performed on fully conscious rats. Tested compounds were administered either by oral gavage as solutions in water, or by intravenous injection (Apo805K1 only) as solution in 0.9% sodium chloride, final pH 7.0, at doses equivalent to 5 mg/kg (per Apo805 content). Blood (0.3 mL) was sampled from each animal from the carotid artery for up to 30 hours post-dosing, each sampling followed by an equivalent naive-blood replacement. The blood sample was immediately centrifuged (4300×g for 5 minutes at 4° C.), and frozen at −80° C. until LC/MS/MS analysis.
Metanol (200 μL) was added to plasma samples (50 μL) to precipitate plasma proteins. After brief vortexing and centrifugation, the supernatant (200 uL) was removed and dried at 40° C. under a stream if nitrogen. The sample was reconstituted in water (300 μL) and 25 μL was injected for analysis.
A Sciex API 365 LC/MS/MS spectrophotometer equipped with Ionics EP10+ and HSID, was used. A chiral column (Supelco-Astec CHIROBIOTIC™ TAG), 100×2.1 mm, 5 μm was used at ambient temperature. The mobile phase consisted of 0.1% formic acid in water (A) and 0.1% formic acid in acetonitrile (B) in a ratio of 88:12(A:B; v/v) and the flow rate was 0.6 mL/min. Positive ion electrospray ionization (ESI+) in MRM mode was used for analysis. Samples were analysed for the concentration of Apo805.
Absolute oral bioavailability of pro-drugs Apo848, a compound of Formula IA wherein G=T=isoamyl) was compared to that of Apo805K1 (potassium salt of H-D-Glu(D-Trp-OH)—OH) in male Sprague-Dawley rats. Adult animals, five per group, were dosed orally with 5 mg/kg Apo805K1, Apo848, or Apo838 and intravenously with 5 mg/kg Apo805K1.
Non-compartmental analysis was performed using WinNonlin 5.2 software, on individual animal data. Bioavailability was calculated as a ratio of AUCINF—D after oral dosing of test compound to AUCINF—D after IV dosing of Apo805K1.

[3] = Conversion of prodrug to Apo805 in rat blood; format: in vitro ADME
[4] = Caco-2 cell permeability evaluation; format: in vitro ADME; conditions: human; caco-2, 50 μM, HBSS pH 7.4, 37° C.; read-out: apparent permeability (Papp)
Procedure: Human intestinal absorbtion potential of a compound of Formula I was estimated in caco-2 cells permeability assay.
Caco-2 cells obtained originally from ATCC were seeded onto 0.9-cm^2 PET filter (Becton Dickinson) at a density of 90000 cells/insert. Culture conditions were maintained for 21-28 days in 20% fetal bovine serum containing eagle's minimum essential medium enriched with non-essential amino acids. Integrity of the cell monolayers was evaluated via measurement of Lucifer Yellow paracellular apparent permeability coefficient (Papp).
Prior to the addition of a test compound, growth medium was removed and monolayer was rinsed twice with Hank's balanced salt solution (HBSS) at 37° C. The filter inserts containing the cell monolayers were transferred to a separate 12-well cell culture plate containing HBSS or solution of the test compound in the bottom chamber. […] For every experiment, the test compound solution was added to the top (apical-to-basolateral transport, A>B) or bottom (basolateral-to-apical transport, B>A) chamber and its appearance in the opposite chamber over time was monitored. […] Samples were analyzed by LC-MS/MS. In case of prodrugs which undergo partial hydrolysis during the experiment, the samples were analyzed for the concentration of the prodrug and all hydrolysis products. […]

human hepatocytes = experiment: Biotransformation studies in human cryopreserved hepatocytes; format: in vitro ADME; conditions: for Bioconversion to Apo805 in human hepatocytes: in 3 h, 100 μM, cryopreserved human hepatocytes
Procedure: LiverPool® cryopreserved human hepatocytes (pooled from 10 male donors) was obtained from Celsis In Vitro Technologies. The hepatocytes were stored in liquid nitrogen until used. Just before the assay, the hepatocytes were quickly thawed at 37° C. and centrifuged at 100×g for 10 min. The media was removed and cells were re-suspended in PBS at a density of 4×10^6 cells/mL.
The compound of Formula I (100 μM) was incubated with 0.1×10^6 hepatocytes in 50 μL volume. […] The “time 0” sample was generated by adding TCA before the test compound. After brief vortexing and 10-min incubation on ice, samples were centrifuged (16,000×g, 10 min) and the supernatants were analyzed by HPLC with UV detection.
HPLC analysis of pro-drugs in SGF, SIF, plasma and hepatocytes samples: HPLC analysis was done using an Agilent 1100 series HPLC system consisting of a programmable multi-channel pump, auto-injector, vacuum degasser and HP detector controlled by Agilent HPLC218 Chem Station Rev.A.09.03 software for data acquisition and analysis. A gradient method was used for the determination of all pro-drugs and their hydrolysis products including Apo805 on an Agilent Eclipse XDB, C18 column (part #963967-902, 150×4.6 mm, 3.5 μm) with the following chromatographic conditions: • Temperature: Ambient • Mobile phase: A=Aqueous phase: 10 mM Tris-HCl, 2 mM EDTA, pH 7.4 • B=Organic phase: Acetonitrile • Gradient method: Time: 0 min 5% B, 25 min 50% B, 35 min 80% B, 45 min 5% B, 50 min 5% B. • Mobile phase flow rate: 1.0 mL/min • Injection volume: 50 μL • Data acquisition time: 30 min • Detection wavelength: 280 nm; 4 nm bandwidth, ref. 360 nm, 4 nm bandwidth
The chromatograms at λ=280 nm were analyzed. Peak area (mAU*s) was used for quantitation of pro-drugs, intermediates and H-D-Glu(D-Trp-OH)—OH (Apo805).

In the case of `N[C@H](CCC(=O)N[C@H](Cc1c[nH]c2ccccc12)C(=O)O)C(=O)O` [Apo805, D-gamma-glutamyl-D-tryptophan], the “Log D7.4” value ([1]; pH 7.4, 1-octanol/MOPS buffer) is reported as −3.22.
For `N[C@H](CCC(=O)N[C@H](Cc1c[nH]c2ccccc12)C(=O)[O-])C(=O)[O-].[H+].[K+]` [Apo805K1, potassium salt of H-D-Glu(D-Trp-OH)—OH, reference compound], the “Absolute oral bioavailability (AUC oral / AUC intravenous Apo805K1; Apo805 measured in plasma)” value ([2]; rats, oral 5 mg/kg) was 12%.
In the case of `CC(C)CCOC(=O)[C@H](N)CCC(=O)N[C@H](Cc1c[nH]c2ccccc12)C(=O)OCCC(C)C.Cl` [Apo848, 3-methylbutyl (2R)-2-amino-5-{[(2R)-3-(1H-indol-3-yl)-1-(3-methylbutoxy)-1-oxopropan-2-yl]amino}-5-oxopentanoate hydrochloride], the “improvement of the log D value of H-D-Glu(D-Trp-OH)—OH” value ([1]; diisoamyl ester versus parent drug) is reported as “more than 10^5 fold”, the “Log D7.4” value ([1]; pH 7.4, 1-octanol/MOPS buffer) is reported as 2.1 and the “distribution coefficient D7.4” value ([1]; pH 7.4, 1-octanol/MOPS buffer) is reported as 127. For the same compound, the logD ([1]; pH 7.4, 1-octanol/MOPS buffer, read-out: Log D7.4) was 2.1, the “Absolute oral bioavailability (AUC oral / AUC intravenous Apo805K1; Apo805 measured in plasma)” value ([2]; male, Sprague-Dawley, rat, in vivo, 5 mg/kg) was 48% and the “oral bioavailability compared with Apo805” value ([2]; rat, in vivo, po) was “enhanced”. For the same compound, the “oral exposure compared with H-D-Glu(D-Trp-OH)—OH” value ([2]; rat, in vivo, po) was “improved”, the “conversion to Apo805 in rat blood” value [3] was “instantaneously converted” and the Papp at 120 min, 50 μM [4] was 2.87 ×10⁻⁶ cm/s.
With `COC(=O)[C@H](N)CCC(=O)N[C@H](Cc1c[nH]c2ccccc12)C(=O)OC` [Apo840, H-D-Glu(D-Trp-O—Me)—O—Me, reference compound] the “Log D7.4” value ([1]; pH 7.4, 1-octanol/MOPS buffer) was 0.57 and the “Bioconversion to Apo805 in human hepatocytes” value (human hepatocytes) was 30% in 3 h.
For `COC(=O)[C@@H](Cc1c[nH]c2ccccc12)NC(=O)CC[C@@H](N)C(=O)O` [H-D-Glu(D-Trp-OMe)-OH, reference compound], the “Log D7.4” value ([1]; pH 7.4, 1-octanol/MOPS buffer) was −0.89.
With `COC(=O)[C@@H](Cc1c[nH]c2ccccc12)NC(=O)CC[C@@H](N)C(=O)OCc1ccccc1` [Apo804, H-D-Glu(D-Trp-OMe)-O—CH2Ph] the “log D7.4 compared with Apo805” value ([1]; more lipophilic than Apo805) was “higher”, the “Bioconversion to Apo805 in human hepatocytes” value (human hepatocytes) was 30% and the “Apo805 formed in human cryopreserved hepatocyte” value (human hepatocytes; over a period of 4 hours) was 31%.
